Values of other authors in PMC11730002 (Turkish Journal of Pharmaceutical Sciences, 2025).

Legend:
[1] = molecular target: T1, pancreatic lipase (Sus scrofa, UniProt P00591); conditions: read-out: Pancreatic lipase inhibition IC50; in vitro study
T1 sequence (P00591 1-450): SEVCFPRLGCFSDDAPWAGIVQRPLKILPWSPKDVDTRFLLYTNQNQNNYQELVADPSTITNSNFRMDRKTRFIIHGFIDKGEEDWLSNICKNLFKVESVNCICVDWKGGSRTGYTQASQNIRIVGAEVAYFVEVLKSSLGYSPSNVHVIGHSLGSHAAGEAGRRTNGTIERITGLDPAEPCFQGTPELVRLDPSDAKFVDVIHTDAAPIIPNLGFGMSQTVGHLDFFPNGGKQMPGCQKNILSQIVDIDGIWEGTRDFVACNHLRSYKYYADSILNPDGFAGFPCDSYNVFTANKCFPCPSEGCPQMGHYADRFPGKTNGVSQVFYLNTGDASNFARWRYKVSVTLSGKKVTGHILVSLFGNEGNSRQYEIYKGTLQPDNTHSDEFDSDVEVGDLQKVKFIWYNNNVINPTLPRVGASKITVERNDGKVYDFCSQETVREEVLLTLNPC

[2] = molecular target: lipase; conditions: read-out: Lipase inhibitory activity IC50

O=C(/C=C/c1ccc(O)c(O)c1)O[C@H](Cc1ccc(O)c(O)c1)C(=O)O [Rosmarinic acid]
IC50 [1]: 347 µM | IC50 [2]: 62.8 ± 2.7 µM
